# Legend:
# [1] = target: SLC41A1-related Na+/Mg2+ exchanger (Homo sapiens, UniProt Q8IVJ1); assay: Modulators of SLC41A1-related Na+/Mg2+ exchanger activity (Table 3); type: cell-based; details: at the dosage given, where given;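 note: listed substances are classed by whether they raise or lower SLC41A1-related Na+/Mg2+ exchanger activity, acting directly on the protein or through cellular signalling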
# HEK293-(SLC41A1) cells = assay: Proliferation (cell index) of HEK293-(SLC41A1) cells; details: imipramine 250 μM, dB-cAMP 100 μM, added 24 hours after seeding; compared to controls
# hSLC41A1 = hSLC41A1 (Homo sapiens, UniProt Q8IVJ1); assay: Mg2+ efflux ([Mg2+]i decrease over 20 min) by mag-fura 2 FF-spectrofluorometry in +tet HEK293-(SLC41A1) cells; details: for Mg2+ efflux: Mg2+-free medium, [Na+]e 145 mM; for Effect on SLC41A1-mediated Mg2+ efflux (in words): summary statement
# Chain of hSLC41A1 (Q8IVJ1 whole entry): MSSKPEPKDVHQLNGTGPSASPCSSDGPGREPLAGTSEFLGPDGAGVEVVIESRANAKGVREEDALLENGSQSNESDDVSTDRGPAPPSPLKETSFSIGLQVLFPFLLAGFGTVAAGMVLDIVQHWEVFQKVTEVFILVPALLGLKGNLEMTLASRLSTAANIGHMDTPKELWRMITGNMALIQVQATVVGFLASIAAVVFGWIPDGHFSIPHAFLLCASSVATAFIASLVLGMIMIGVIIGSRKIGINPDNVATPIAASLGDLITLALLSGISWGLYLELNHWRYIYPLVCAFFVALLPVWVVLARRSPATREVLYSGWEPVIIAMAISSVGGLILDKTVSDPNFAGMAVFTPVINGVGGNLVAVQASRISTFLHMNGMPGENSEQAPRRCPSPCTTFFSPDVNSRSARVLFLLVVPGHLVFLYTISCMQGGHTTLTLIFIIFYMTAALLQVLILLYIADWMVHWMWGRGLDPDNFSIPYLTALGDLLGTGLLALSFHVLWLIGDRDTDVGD
# Experimental: Loading of cells with 7.5 μmol.l^−1 mag-fura 2 AM (Molecular Probes, Eugene, Oreg. USA) was performed for 30 minutes at 37° C. in the presence of loading facilitator Pluronic F-127 (Molecular probes). After being washed in CMF-HBS+, cells were incubated for a further 30 minutes at 37° C. to allow for complete de-esterification of the fluorescence probe, washed twice in CMF-HBS+ to remove extracellular mag-fura 2 and stored in CMF-HBS supplemented with 10 mmol.l^−1 HEPES, 5 mmol.l^−1 glucose and 0.4 mmol.l^−1 Mg^2+ until being Mg^2+-loaded before measurements of the Mg^2+ efflux capacity. The latter was determined as the intracellular Mg^2+ concentration ([Mg^2+]i) decrease over a 20-min period. Directly before the efflux experiments, −tet and +tet HEK293-(SLC41A1) were Mg-loaded by a 20-min incubation in CMF-HBS+ containing 0, 2, 5 or 10 mmol.l^−1 Mg. […] After loading, the remaining extracellular Mg^2+ was removed by washing the cells twice in CMF-HBS+ and, after re-suspending the cells in CMF-HBS+, measurements were started. To determine the influence of varying extracellular [Na^+], measuring solutions were prepared by diluting the CMF-HBS+ containing 145 mM Na^+ with appropriate volumes of a completely Na^+- and Mg^2+-free PBS. To investigate the effect of HCO3^− on Mg^2+ efflux, completely Ca^2+- and Mg^2+-free medium 199 completed with 10 mmol.l^−1 HEPES and 1.36 mmol.l^−1 L-glutamine (CMF-M199+) with Hank's (0.35 g/l NaHCO3) or Earl's (2.2 g/l NaHCO3) salts were used during Mg-loading and measurements. To ensure a stable pH value, the high-HCO3^− media were pre-equilibrated with 95% air-5% CO2.
# Measurements were made at 37° C. in 3 ml cuvettes containing 2 ml cell suspension (CMF-HBS+ or CMF-M199+ with a cytocrit of 10%) under stirring. [Mg^2+]i was determined by measuring the fluorescence of the probe-loaded cells in a spectrofluorometer (LS50-B, PerkinElmer Life Science, Wellesley, Mass. USA) by using the fast filter accessory, which allowed fluorescence to be measured at 20-ms intervals with excitation at 340 and 380 nm, and emission at 515 nm. [Mg^2+]i values were calculated from the 340/380-nm ratio according to the formula of Grynkiewicz et al. (1981) by using the software FL WinLab version 4.0 (PerkinElmer Life Science). A dissociation constant of 1.5 mmol.l^−1 for the mag-fura 2/Mg^2+ complex was used for calculations; minimum (Rmin) and maximum (Rmax) ratios were determined at the end of each experiment by using digitonin. Rmax was found by the addition of 25 mmol.l^−1 MgCl2 in the absence of Ca^2+, whereas Rmin was obtained by addition of 50 mmol.l^−1 EDTA, pH 7.2, to remove all Mg^2+ from the solution. For data evaluation, 10-second data sets each were averaged at the beginning of the measurement and then always after 50 seconds. The final [Mg^2+]i was determined as the mean [Mg^2+]i of the last 10 seconds of the measurement. Thus, for the calculation of any given [Mg^2+]i, 500 data points were used. If not otherwise stated, data are presented as means±standard error (SE).
# Chain of SLC41A1-related Na+/Mg2+ exchanger (Q8IVJ1 whole entry): as above
Effect on Na+/Mg2+ exchanger [1],Compound,also measured
Inhibition,"CN(C)CCCN1c2ccccc2CCc2ccccc21 [Imipramine, 10,11-Dihydro-N,N-dimethyl-5H-dibenz-[b,f]azepin-5-propanamin]","Effect on proliferation of SLC41A1-overexpressing cells (in words) (HEK293-(SLC41A1) cells): reduced the proliferation; Mg2+ efflux (hSLC41A1; 250 μM, Mg2+-loaded (20 min, 10 mM) +tet HEK293-(SLC41A1) cells, without inhibitor 341±35): 129±32 μM/20 min; Effect on SLC41A1-mediated Mg2+ efflux (in words) (hSLC41A1): strongly decrease"
activation,"COc1ccc2c(c1)c(CC(=O)O)c(C)n2C(=O)c1ccc(Cl)cc1 [Indomethacin, 2-[1-(4-chlorobenzoyl)-5-methoxy-2-methylindol-3-yl]acetic acid]",
Inhibition,"CS(=O)(=O)O.N=C(N)SCCc1ccc(OCc2ccc([N+](=O)[O-])cc2)cc1 [KB-R7943, 2-(2-(4-(4-nitrobenzyloxy)-phenyl)ethyl)isothiourea methanesulfonate]",
inhibition,"CNC(=N)NCCC[C@H](N)C(=O)O [L-NMMA, NG-monomethyl-L-arginine]",
activation,"COCC(/C(C)=C/C(=N\O)C(N)=O)[N+](=O)[O-] (stereo not shown) [NOR1, (E)-4-methyl-2-[(E)-hydoxyimino]-5-nitro-6-methoxy-3-hexenamide]",
Inhibition,"COC(=O)C1=C(C)NC(C)=C(C(=O)OC)C1c1ccccc1[N+](=O)[O-] [Nifedipine, 3,5-dimethyl 2,6-dimethyl-4-(2-nitrophenyl)-1,4-di-hydropyridine-3,5-di-carboxylate]",
activation,"CCCCC[C@H](O)/C=C/[C@H]1[C@H](O)CC(=O)[C@@H]1C/C=C\CCCC(=O)O [PGE2, (Z)-7-[(1R,2R,3R)-3-hydroxy-2-[(E,3S)-3-hydroxyoct-1-enyl]-5-oxocyclopentyl]hept-5-enoic acid]",
Inhibition,"C=CC1CN2CCC1CC2C(O)c1ccnc2ccc(OC)cc12 (stereo not shown) [Quinidin, (2-ethenyl-4-azabicyclo [2.2.2]oct-5-yl)-(6-methoxyquinolin-4-yl)-methanol]","Mg2+ efflux (hSLC41A1; 100 μM quinidin, Mg2+-loaded (10 mM) +tet HEK293-(SLC41A1) cells, without inhibitor 327±71): 176±0.5 μM/20 min; Effect on SLC41A1-mediated Mg2+ efflux (in words) (hSLC41A1): strongly decrease"
Inhibition,"CCOc1ccc(Oc2ccc(OCc3cc(F)ccc3F)cc2)c(N)c1 [SEA0400, 2-[4-[(2,5-difluoro-phenyl)methoxy]phenoxy]-5-ethoxyaniline]",
inhibition,"NCCS(=O)(=O)O [Taurine, 2-aminoethanesulfonic acid]",
activation,CCCC(=O)Nc1ncnc2c1ncn2[C@@H]1O[C@@H]2COP(=O)(O)O[C@H]2[C@H]1OC(=O)CCC [dibutyryl-cAMP],"Effect on proliferation of SLC41A1-overexpressing cells (in words) (HEK293-(SLC41A1) cells): stimulation of their proliferation; increase of SLC41A1-related Mg2+ efflux (hSLC41A1; dB-cAMP 100 μM, loading in 0 mM-Mg2+ solution, +tet cells): 36%; increase of SLC41A1-related Mg2+ efflux (hSLC41A1; dB-cAMP 100 μM, loading in 2 mM-Mg2+ solution, +tet cells): 13%; decrease of SLC41A1-related Mg2+ efflux (hSLC41A1; dB-cAMP 100 μM, loading in 10 mM-Mg2+ solution, +tet cells): 17%; Effect on SLC41A1-mediated Mg2+ efflux (in words) (hSLC41A1): stimulated"
activation,CC(C)NCC(O)c1ccc(O)c(O)c1 (stereo not shown) [isoproterenol],
inhibition,C[C@]12CC[C@H](O)C[C@H]1CC[C@@H]1[C@@H]2CC[C@]2(C)[C@@](O)(c3ccoc3)CC[C@]12O [rostafuroxin],
inhibition,Insulin: hormone (via insulin receptor),Effect on SLC41A1-mediated Mg2+ efflux (in words) (hSLC41A1): inhibitory effect
inhibition,epidermal growth factor (EGF): mitogen,

# The remaining lines, values behind:
Compound,Effect on Na+/Mg2+ exchanger [1],also measured
Nc1ncnc2c1nc(Cl)n2[C@@H]1O[C@@H]2COP(=O)(O)O[C@H]2[C@H]1O [8-Cl-cAMP],activation,
Nc1nc2c(nc(Br)n2[C@@H]2O[C@@H]3COP(=O)(O)O[C@H]3[C@H]2O)c(=O)[nH]1 [8-bromo-cyclic GMP],activation,
C[C@]12CCC(=O)C=C1CC[C@@H]1[C@@H]2[C@@H](O)C[C@]2(C=O)[C@@H](C(=O)CO)CC[C@@H]12 [Aldosterone],activation,
"N=C(N)NC(=O)c1nc(Cl)c(N)nc1N [Amiloride, 3,5-diamino-6-chloro-N-(diaminomethylidene)pyrazine-2-carbox-amide]",Inhibition,
"CCCCC/C=C\C/C=C\C/C=C\C/C=C\CCCC(=O)O [Arachidonic acid, (5Z,8Z,11Z,14Z)-icosa-5,8,11,14-tetraenoic acid]",activation,
"N/C(=N\C(=O)c1nc(Cl)c(N)nc1N)NCc1ccccc1 [Benzamil, 3,5-diamino-N-[(1E)-amino(benzylamino)methylidene]-6-chloropyrazine-2-carboxamide]",Inhibition,
"COc1c(O)c2c(=O)cc(OC)c3c4c(OC)cc(=O)c5c(O)c(OC)c(CC(C)OC(=O)c6ccccc6)c(c(c1CC(C)OC(=O)Oc1ccc(O)cc1)c23)c54 (stereo not shown) [Calphostin C, 1-[3,10-dihydroxy-12-[2-(4-hydroxyphenoxy)-carbonyloxypropyl]-2,6,7,11-tetramethoxy-4,9-dioxoperylen-1-yl]propan-2-yl benzoate]",inhibition,
"O=S(=O)([O-])c1cc(N=C=S)ccc1CCc1ccc(N=C=S)cc1S(=O)(=O)[O-].[Na+].[Na+] [DIDS, 4′,4′-diisothiocyanatodihydrostilbene-′,2′-disulfonic acid, disodium salt]",Inhibition,
"C=C[C@@]1(C)CC(=O)[C@]2(O)[C@@]3(C)[C@@H](O)CCC(C)(C)[C@@H]3[C@H](O)[C@H](OC(C)=O)[C@@]2(C)O1 [Forskolin, [(3R,4aR,5S,6S,6aS,10S,10aR,10bS)-3-ethenyl-6,10,10b-trihydroxy-3,4a,7,7,10a-pentamethyl-1-oxo-5,6,6a,8,9,10-hexahydro-2H-benzo[f]chromen-5-yl] acetate]",activation,
"O=c1c(-c2ccc(O)cc2)coc2cc(O)cc(O)c12 [Genistein, 5,7-dihydroxy-3-(4-hydroxyphenyl)chromen-4-one]",inhibition,
"CCN(CC)CC(=O)Nc1c(C)cccc1C [Lidocaine, 2-(diethylamino)-N-(2,6-dimethylphenyl)-acetamide]",Inhibition,
NC[C@H](O)c1ccc(O)c(O)c1 [Norepinephrine],activation,
"O=c1onc2cnc3ccccc3n12 [ODQ, 1H-[1,2,4]oxadiazolo[4,3-α]quinoxaline-1]",inhibition,
C[C@@H]1O[C@@H](O[C@H]2C[C@@H](O)[C@]3(CO)[C@H]4[C@H](O)C[C@]5(C)[C@@H](C6=CC(=O)OC6)CC[C@]5(O)[C@@H]4CC[C@]3(O)C2)[C@H](O)[C@H](O)[C@H]1O [Ouabain],inhibition,
"CCCC(=O)O[C@@H]1[C@@H](C)[C@@]2(O)[C@@H](C=C(CO)C[C@]3(O)C(=O)C(C)=C[C@@H]23)[C@@H]2C(C)(C)[C@]12OC(=O)CCC [Phorbol 12,13-dibutyrate]",activation,
Nc1ncnc2c1ncn2[C@@H]1O[C@@H]2COP(O)(=S)O[C@H]2[C@H]1O (stereo partly shown) [Rp-cAMP],inhibition,
C[C@@H]1C[C@@]2(NC(=O)CS2)[C@]2(O)O[C@@H]3C[C@@]4(CO)[C@@H](CC[C@@H]5[C@@H]4CC[C@]4(C)[C@@H](C6=CC(=O)OC6)CC[C@]54O)C[C@H]3O[C@@H]2O1 [UNBS-1450],inhibition,
C[C@]12CC[C@H](O)C[C@@]1(O)CC[C@@H]1[C@@H]2CC[C@]2(C)[C@@H](c3ccc(=O)oc3)C[C@H]3O[C@]132 [marinobufagenin],inhibition,
CO[C@H]1C[C@H](O[C@H]2CC[C@@]3(C)[C@H](CC[C@@H]4[C@@H]3CC[C@]3(C)[C@@H](C5=CC(=O)OC5)[C@@H](OC(C)=O)C[C@]43O)C2)O[C@@H](C)[C@@H]1O [oleandrin],inhibition,
"Angiotensin II: hormone; vasoactive agent, vasoconstriction (via AT 1 receptor) (DRVYIHPF; Angiotensin-2; UniProt P01019 25-32, looked up)",activation,stimulation of SLC41A1-related Mg2+ efflux (hSLC41A1): 19.5%; Effect on SLC41A1-mediated Mg2+ efflux (in words) (hSLC41A1): stimulated
Glucagon: hormone; modulator listed in Table 3,activation,

# Reference: patent US20130174289A1, “Na+/Mg2+ Exchanger” (FBN - Leibnitz-Institut fur Nutztierbiologie, priority 2010, published 2013)
